Measured values as given in ChEMBL document CHEMBL3414447, “Structure-guided design of a series of MCL-1 inhibitors with high affinity and selectivity” (J Med Chem, 2015).
Activity calls are given as the source filed them. The rule behind the calls is not given here.

Experiments:
[1] = target: T1, Induced myeloid leukemia cell differentiation protein Mcl-1 (Homo sapiens, UniProt Q07820)
[2] = target: T1, Induced myeloid leukemia cell differentiation protein Mcl-1; remark: listed apart in the source
[3] = target: T1, Induced myeloid leukemia cell differentiation protein Mcl-1; remark: listed apart in the source
Description: Displacement of fluorescent labeled NOXA peptide from recombinant human MCL1 by fluorescence polarization assay in presence of 1% human serum

[4] = target: Albumin (Homo sapiens, UniProt P02768)
Description: Displacement of probe S1 from recombinant human serum albumin domain 3 after 5 mins by fluorescence polarization assay

[5] = target: T1, Induced myeloid leukemia cell differentiation protein Mcl-1; remark: listed apart in the source
Description: (§1) Displacement of fluorescent labeled NOXA peptide from recombinant human MCL1 by fluorescence polarization assay

[6] = target: T2, Apoptosis regulator Bcl-2 (Homo sapiens, UniProt P10415); test: Inhibition of BCL-2 (unknown origin) by fluorescence polarization assay
[7] = target: T1, Induced myeloid leukemia cell differentiation protein Mcl-1; test: Displacement of fluorescent labeled NOXA peptide from recombinant MCL1 (unknown origin) after 15 mins by fluorescence polarization assay
[8] = target: T3, Bcl-2-like protein 1 (Homo sapiens, UniProt Q07817); test: Inhibition of BCL-XL (unknown origin) by fluorescence polarization assay
[9] = target: T1, Induced myeloid leukemia cell differentiation protein Mcl-1; remark: listed apart in the source
Description: as §1

[10] = target: T1, Induced myeloid leukemia cell differentiation protein Mcl-1; test: Inhibition of MCL-1 in human BXPC3 cells assessed as reduction of navitoclax EC50 at 20 uM after 72 hrs by CellTiter-Glo assay in presence of 10% fetal bovine serum; type: cell-based; details: BXPC-3
[11] = target: T4, Bcl-2-like protein 2 (Homo sapiens, UniProt Q92843); test: Inhibition of BCL-W (unknown origin) after 1 hr by TR-FRET assay
T4 sequence (Q92843 whole entry): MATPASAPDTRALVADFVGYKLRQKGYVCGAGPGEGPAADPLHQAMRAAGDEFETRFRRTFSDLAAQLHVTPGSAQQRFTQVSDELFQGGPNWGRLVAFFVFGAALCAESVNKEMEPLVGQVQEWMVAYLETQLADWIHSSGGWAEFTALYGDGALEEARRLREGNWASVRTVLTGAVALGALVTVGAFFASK

[12] = target: T3, Bcl-2-like protein 1
[13] = Fraction unbound in human plasma after 4.5 hrs by equilibrium dialysis method; type: ADME, cell-free
[14] = target: T1, Induced myeloid leukemia cell differentiation protein Mcl-1; test: Inhibition of MCL-1 in human H929 cells assessed as induction of caspase3/7 activation after 4 hrs by caspase-Glo 3/7 assay in presence of 0.1 to 10% fetal bovine serum; type: cell-based
[15] = target: T1, Induced myeloid leukemia cell differentiation protein Mcl-1; test: Inhibition of MCL-1 in human H929 cells assessed as loss in cell viability after 4 hrs by CellTiter-Glo assay in presence of 0.1 to 10% fetal bovine serum; type: cell-based
[16] = target: T5, Bcl-2-related protein A1 (Homo sapiens, UniProt Q16548); test: Inhibition of BCL2-A1 (unknown origin) after 1 hr by TR-FRET assay
T5 sequence (Q16548 whole entry): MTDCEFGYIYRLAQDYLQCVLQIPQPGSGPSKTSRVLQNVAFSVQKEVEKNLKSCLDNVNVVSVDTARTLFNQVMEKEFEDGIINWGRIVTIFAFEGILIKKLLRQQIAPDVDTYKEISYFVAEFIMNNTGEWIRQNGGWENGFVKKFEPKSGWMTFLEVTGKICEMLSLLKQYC

[17] = target: T2, Apoptosis regulator Bcl-2
[18] = target: T1, Induced myeloid leukemia cell differentiation protein Mcl-1; test: Ratio of Ki(app) for MCL1 (unknown origin) by TR-FRET assay in presence of 10% human serum to Ki(app) for MCL1 (unknown origin) by TR-FRET assay in absence of 10% human serum

T1 sequence (Q07820 whole entry): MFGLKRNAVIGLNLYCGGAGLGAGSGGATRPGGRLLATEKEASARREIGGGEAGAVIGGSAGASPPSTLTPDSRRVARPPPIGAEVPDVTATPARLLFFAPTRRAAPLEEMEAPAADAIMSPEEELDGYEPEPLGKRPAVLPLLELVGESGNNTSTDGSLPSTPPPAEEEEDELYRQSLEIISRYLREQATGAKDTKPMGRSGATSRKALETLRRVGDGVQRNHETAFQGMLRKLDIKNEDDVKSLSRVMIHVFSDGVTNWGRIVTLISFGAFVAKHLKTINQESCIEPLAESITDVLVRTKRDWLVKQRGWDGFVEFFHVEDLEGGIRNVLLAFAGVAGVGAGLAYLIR
Albumin, sequence (P02768 whole entry): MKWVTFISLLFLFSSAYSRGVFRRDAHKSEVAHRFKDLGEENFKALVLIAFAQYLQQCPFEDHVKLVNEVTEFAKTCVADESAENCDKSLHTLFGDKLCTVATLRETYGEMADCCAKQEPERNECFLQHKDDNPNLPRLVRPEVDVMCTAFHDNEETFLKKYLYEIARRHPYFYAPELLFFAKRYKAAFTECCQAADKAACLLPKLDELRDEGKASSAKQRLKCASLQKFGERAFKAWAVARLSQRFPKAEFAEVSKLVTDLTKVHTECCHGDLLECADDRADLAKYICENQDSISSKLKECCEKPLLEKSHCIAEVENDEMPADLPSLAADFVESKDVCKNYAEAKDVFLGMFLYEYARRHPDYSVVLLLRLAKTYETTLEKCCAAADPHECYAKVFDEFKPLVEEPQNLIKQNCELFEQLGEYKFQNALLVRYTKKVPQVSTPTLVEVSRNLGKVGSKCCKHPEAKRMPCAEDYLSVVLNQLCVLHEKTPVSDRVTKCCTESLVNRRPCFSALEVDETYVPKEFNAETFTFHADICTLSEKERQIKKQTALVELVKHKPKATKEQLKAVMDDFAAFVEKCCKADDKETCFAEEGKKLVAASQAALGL
T3 sequence (Q07817 whole entry): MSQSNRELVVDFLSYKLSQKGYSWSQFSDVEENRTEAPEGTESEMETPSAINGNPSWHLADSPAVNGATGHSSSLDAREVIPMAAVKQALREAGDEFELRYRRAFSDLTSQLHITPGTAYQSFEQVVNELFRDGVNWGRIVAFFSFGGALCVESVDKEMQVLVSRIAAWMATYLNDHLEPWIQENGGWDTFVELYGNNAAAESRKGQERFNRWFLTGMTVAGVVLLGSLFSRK
T2 sequence (P10415 whole entry): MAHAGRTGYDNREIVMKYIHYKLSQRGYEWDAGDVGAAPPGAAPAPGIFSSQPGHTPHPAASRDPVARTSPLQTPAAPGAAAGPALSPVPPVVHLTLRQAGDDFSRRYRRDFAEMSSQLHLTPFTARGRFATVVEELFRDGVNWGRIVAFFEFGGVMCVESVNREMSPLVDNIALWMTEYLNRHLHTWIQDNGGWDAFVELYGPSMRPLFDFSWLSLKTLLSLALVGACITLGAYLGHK

Question: For CCOC(=O)c1c(CCCOc2cccc3ccccc23)c2cccc(-c3c(C)nn(C)c3COc3ccc(N4CCNCC4)cc3)c2n1CCN1CCOCC1, which Ki [1] is on record?
Answer: 2 nM

Question: What about the Ki [2] of the same compound?
Answer: 12 nM

Question: What does the source list for Cc1nn(C)c(C)c1-c1cccc2c(CCCOc3cccc4ccccc34)c(C(=O)O)n(CCN3CCOCC3)c12?
Answer: Ki [3]: 4 nM; Ki [4]: 1450 nM; Ki [5]: < 10 nM; Ki [1]: 1.5 nM; Ki [2]: 35 nM

Question: With O=C(O)c1[nH]c2ccccc2c1CCCCC1CCCCC1 as the compound, how does the Ki [6] read?
Answer: > 10000 nM

Question: And the Ki [7]?
Answer: 4400 nM

Question: What about the Ki [8] of the same compound?
Answer: > 10000 nM

Question: Which Ki [1] does the source give for CC(=O)N1CCN(c2ccc(OCc3nn(C)c(C)c3-c3cccc4c(CCCOc5cccc6ccccc56)c(C(=O)O)n(Cc5cccnc5)c34)cc2)CC1 here?
Answer: 1.8 nM

Question: What about the Ki [2] of the same compound?
Answer: 98 nM

Question: With Cc1nn(C)c(COc2ccccc2)c1-c1cccc2c(CCCOc3cccc4ccccc34)c(C(=O)O)n(CCN3CCOCC3)c12 as the compound, how does the Ki [1] read?
Answer: 2.3 nM

Question: And the Ki [2]?
Answer: 114 nM

Question: With Cc1nn(C)c(COc2ccc(N3CCN(S(=O)(=O)N4CCOCC4)CC3)cc2)c1-c1cccc2c(CCCOc3cccc4ccccc34)c(C(=O)O)n(CCN3CCOCC3)c12 as the compound, how does the Ki [1] read?
Answer: 0.48 nM

Question: And the Ki [2]?
Answer: 12.3 nM

Question: With Cc1cccc(-c2cccc3c(CCCOc4cccc5ccccc45)c(C(=O)O)[nH]c23)c1 as the compound, how does the Ki [3] read?
Answer: 8200 nM

Question: And the Ki [5]?
Answer: 160 nM

Question: With Cc1ccccc1-c1cccc2c(CCCO)c(C(=O)O)[nH]c12 as the compound, how does the inhibition [9] read?
Answer: inactive

Question: Which Ki [3] does the source give for Cc1ccc(-c2cccc3c(CCCOc4cccc5ccccc45)c(C(=O)O)[nH]c23)cc1 here?
Answer: 9100 nM

Question: What about the Ki [5] of the same compound?
Answer: 150 nM

Question: With Cc1nn(C)c(COc2ccc(N3CCN(S(C)(=O)=O)CC3)cc2)c1-c1cccc2c(CCCOc3cccc4ccccc34)c(C(=O)O)n(CCN3CCOCC3)c12 as the compound, how does the fold change (FC) [10] read?
Answer: 45

Question: And the Ki [11]?
Answer: > 660 nM

Question: And the Ki [12]?
Answer: > 660 nM

Question: And the fraction unbound at 4.5 h [13]?
Answer: < 0.01

Question: And the inhibition [14]?
Answer: Active

Question: What about the inhibition [15] of the same compound?
Answer: Active

Question: And the Ki [16]?
Answer: > 660 nM

Question: And the Ki [17]?
Answer: > 660 nM

Question: For CCS(=O)(=O)N1CCN(c2ccc(OCc3c(-c4cccc5c(CCCOc6cccc7ccccc67)c(C(=O)O)n(CCN6CCOCC6)c45)c(C)nn3C)cc2)CC1, which Ki [1] is on record?
Answer: 0.2 nM

Question: And the Ki [2]?
Answer: 4.9 nM

Question: Which Ki [1] does the source give for Cc1nn(C)c(COc2ccc(N3CCN(S(=O)(=O)N(C)C)CC3)cc2)c1-c1cccc2c(CCCOc3cccc4ccccc34)c(C(=O)O)n(CCN3CCOCC3)c12 here?
Answer: 0.45 nM

Question: What about the Ki [2] of the same compound?
Answer: 7.9 nM

Question: Which Ki [3] does the source give for O=C(O)c1[nH]c2c(-c3ccccc3)cccc2c1CCCOc1cccc2ccccc12 here?
Answer: 5300 nM

Question: What about the Ki [5] of the same compound?
Answer: 130 nM

Question: For CCCS(=O)(=O)N1CCN(c2ccc(OCc3c(-c4cccc5c(CCCOc6cccc7ccccc67)c(C(=O)O)n(CCN6CCOCC6)c45)c(C)nn3C)cc2)CC1, which Ki [1] is on record?
Answer: 0.31 nM

Question: And the Ki [2]?
Answer: 8.8 nM

Question: Which Ki [1] does the source give for CC(=O)N1CCN(c2ccc(OCc3c(-c4cccc5c(CCCOc6cccc7ccccc67)c(C(=O)O)n(CCN6CCOCC6)c45)c(C)nn3C)cc2)CC1 here?
Answer: 0.24 nM

Question: What about the Ratio Ki(app) [18] of the same compound?
Answer: 10

Question: What about the Ki [2] of the same compound?
Answer: 2.7 nM

Question: Which results are given for Cc1ccccc1-c1cccc2c(CCCOc3cccc4ccccc34)c(C(=O)O)[nH]c12?
Answer: Ki [3]: 8600 nM; Ki [4]: < 30 nM; Ki [5]: 35 nM

Question: With O=C(O)c1[nH]c2ccccc2c1CCCO as the compound, how does the Ki [4] read?
Answer: > 100000 nM

Question: What about the inhibition [9] of the same compound?
Answer: inactive
